According to patent US5563268A, “Heterobiaryl derivatives” (Dr. Karl Thomae GmbH, priority 1991, dated 1996):
Where a name gives a salt, the structure may show the parent alone.

Assays:
human thrombocytes [1] = experiment: Fibrinogen binding to human thrombocytes (125I-fibrinogen, gel-filtered platelets); settings: inhibition of 125I-fibrinogen binding by 50%, 20 minutes at ambient temperature, read-out: Fibrinogen binding test ID50
Procedure: (§1) 1. Fibrinogen binding to human thrombocytes Blood obtained by puncture of an antecubital vein is anticoagulated with trisodium citrate (final concentration: 13 mM) and centrifuged for 10 minutes at 170 *g. The supernatant platelet-rich plasma is placed on a Sepharose 2B column (Pharmacia) and eluted with a solution of 90 mM common salt, 14 mM trisodium citrate, 5 mM glucose and 50 mM tris(hydroxymethyl)aminomethane, adjusted to pH 7.4. The gel-filtered platelets (GFP) appearing in front of the plasma proteins are used for the binding tests. 50 μl of a 60 mM calcium chloride solution, 50 μl of a 0.6 mM adenosine diphosphate solution, 100 μl of substance solution or solvent and 50 μl of fibrinogen solution (containing 3 μg ^125 I-fibrinogen) are added to 750 μl of GFP and incubated for 20 minutes at ambient temperature. The non-specific binding is measured in the presence of 3 mg/ml of cold fibrinogen. 900 μl of the incubate are carefully pipetted onto 250 μl of silicon oil (AP 38: AR 20, 1:2 v/v, Wacker Chemie) in Eppendorf vessels and centrifuged for 2 minutes at 10,000 *g. The aqueous supernatant and some of the oil are removed, the tip of the vessel with the platelet pellet is cut off and the quantity of bound fibrinogen is measured in a gamma-counter. The concentration of substance which inhibits fibrinogen binding by 50% is calculated from a series of concentrations and given as the IC50.

thrombocyte aggregation = experiment: Antithrombotic activity: inhibition of collagen-induced platelet aggregation (Born and Cross) in platelet-rich plasma; assay type: cell-based, healthy volunteers (human); settings: 10 min, human platelet-rich plasma, 10 minutes incubation at 37° C.
Procedure: Method The thrombocyte aggregation is measured using the Born and Cross method (J. Physiol. 170: 397 (1964)) in platelet-rich plasma taken from healthy volunteers. To inhibit coagulation the blood is mixed with 3.14% sodium citrate in a ratio by volume of 1:10. Collagen-induced aggregation The pattern of the decrease in optical density of the platelet suspension is photometrically measured and recorded after the addition of the aggregation-triggering substance. The rate of aggregation is concluded from the angle of inclination of the density curve. The point on the curve where there is maximum light transmittance is used to calculate the optical density. The amount of collagen used is as small as possible but sufficient to produce an irreversible reaction curve. Standard commercial collagen produced by Hormonchemie of Munich is used. Before the addition of the collagen the plasma is incubated for 10 minutes with the substance at 37° C. From the measurements obtained an EC50 is determined graphically, indicating a 50% change in the optical density in terms of the inhibition of aggregation.

mice = experiment: Tolerability after intravenous administration to mice; assay type: in vivo; settings: intravenous administration of 30 mg/kg to three mice
human thrombocytes [2] = experiment: Fibrinogen binding test on human thrombocytes with 125I-fibrinogen replaced by a 3H-labelled ligand (footnote *); settings: * 125I fibrinogen replaced by 3H-labelled (3S,5S)-5-[(4amidino-4-biphenylyl)-oxymethyl... pyrrolidon ligand; 20 min; read-out: Fibrinogen binding test ID50
Procedure: as §1, with “The gel-filtered platelets (GFP) appearing in front of the plasma proteins are used for the binding tests. 50 μl of a 60 mM calcium chloride solution, 50 μl of a 0.6 mM adenosine diphosphate solution, 100 μl of substance solution or solvent and 50 μl of fibrinogen solution (containing 3 μg ^125 I-fibrinogen) are added to 750 μl of GFP and incubated for 20 minutes at ambient temperature.” left out, “IC50. | *^125 I fibrinogen was replaced by [^3 […]” for “IC50.”

human thrombocytes [3] = experiment: Antiaggregatory activity ex vivo after oral administration to rats, rat plasma in the presence of human thrombocytes; design: species or system rat (treated animals; settings: 10 mg/kg oral, two hours after administration, rat plasma with human thrombocytes

Structure (SMILES)	IC50 (human thrombocytes [1])	EC50 (thrombocyte aggregation)	deaths (mice)	IC50 (human thrombocytes [2])	antiaggregatory activity (human thrombocytes [3])
Cn1nc(-c2ccc(C(=N)N)cc2)cc(C(=O)N(C)[C@H]2CC[C@H](C(=O)O)CC2)c1=O [1(16), 6-(4-amidinophenyl)-4-[N-(trans-4-carboxycyclohexyl)-N-methyl-aminocarbonyl]-2-methyl-(2H)-pyridazin-3-one]	55 nM	160 nM	did not cause any deaths		
Cn1nc(-c2ccc(C(=N)N)cc2)cc(C(=O)NCCCCC(=O)O)c1=O [Example 1, 6-(4-Amidinophenyl)-4-[(4-carboxybutyl)-aminocarbonyl]-2-methyl-(2H)-pyridazin-3-one]	130 nM	420 nM	did not cause any deaths		
Cn1nc(-c2ccc(C(=N)N)cc2)cc(C(=O)N[C@H]2CC[C@H](C(=O)O)CC2)c1=O [1(4), 6-(4-amidinophenyl)-4-[(trans-4-carboxycyclohexyl)-aminocarbonyl]-2-methyl-(2H)-pyridazin-3-one]	37 nM	540 nM	did not cause any deaths		
COC(=O)[C@H]1CC[C@H](NC(=O)c2cc(-c3ccc(CN)cc3)nn(C)c2=O)CC1 [Example 5, 6-[4-(Aminomethyl)-phenyl]-4-[[trans-4-(methoxycarbonyl)-cyclohexyl]-aminocarbonyl]-2-methyl-(2H)-pyridazin-3-one-hydrochloride]	6200 nM	3000 nM			
N=C(N)c1ccc(-c2ccc(Nc3ccc(CCC(=O)O)cc3)nn2)cc1 [1(7), 6-(4-amidinophenyl)-3-[4-(2-carboxyethyl)-phenylamino]-pyridazine]	4400 nM	12000 nM			
COc1nnc(-c2ccc(C(=N)N)cc2)cc1C(=O)N[C@H]1CC[C@H](C(=O)O)CC1 [1(21), 6-(4-amidinophenyl)-4-[(trans-4-carboxycyclohexyl)-aminocarbonyl]-3-methoxy-pyridazine]	62 nM	320 nM			
N=C(N)c1ccc(-c2cc(C(=O)N[C@H]3CC[C@H](C(=O)O)CC3)c(=O)n(CC(=O)N3CCOCC3)n2)cc1 [1(30), 6-(4-amidinophenyl)-4-[(trans-4-carboxycyclohexyl)-aminocarbonyl]-2-[(morpholinocarbonyl)-methyl]-(2H)-pyridazin-3-one-hydrochloride]		100 nM		33 nM	
Cl.Cn1nc(-c2ccc(CN)cc2)cc(C(=O)N[C@H]2CC[C@H](C(=O)O)CC2)c1=O [Example 4, 6-[4-(Aminomethyl)-phenyl]-4-[(trans-4-carboxy-cyclohexyl)-aminocarbonyl]-2-methyl-(2H)-pyridazin-3-one-hydrochloride]	370 nM	790 nM	did not cause any deaths		
COC(=O)NC(=N)c1ccc(-c2cc(C(=O)N[C@H]3CC[C@H](C(=O)OC)CC3)c(=O)n(C)n2)cc1 [Example 3, 6-[4-[N-(Methoxycarbonyl)-amidino]-phenyl]-4-[[trans-4-(methoxycarbonyl)-cyclohexyl]-aminocarbonyl]-2-methyl-(2H)-pyridazin-3-one]	2200 nM	> 300000 nM	did not cause any deaths		showed an antiaggregatory activity
N=C(N)c1ccc(-c2cc(C(=O)NCCCCC(=O)O)c(=O)[nH]n2)cc1 [1(3), 6-(4-amidinophenyl)-4-[(4-carboxybutyl)-aminocarbonyl]-2H-pyridazin-3-one]	200 nM	390 nM			
N=C(N)c1ccc(-c2cc(C(=O)N[C@H]3CC[C@H](C(=O)O)CC3)c(=O)n(Cc3ccccc3)n2)cc1 [1(18), 6-(4-amidinophenyl)-2-benzyl-4-[(trans-4-carboxycyclohexyl)-aminocarbonyl]-(2H)-pyridazin-3-one]		310 nM		33 nM	
N=C(N)c1ccc(-c2ccc(N[C@H]3CC[C@H](C(=O)O)CC3)nn2)cc1 [1(11), 6-(4-amidinophenyl)-3-[(trans-4-carboxycyclohexyl)-amino]-pyridazine]	580 nM	1200 nM			
COC(=O)CC1CCN(C(=O)c2cnc(-c3ccc(C(=N)N)cc3)nc2OC)CC1 [2(15), 2-(4-amidinophenyl)-4-methoxy-5-[4-[(methoxycarbonyl)-methyl]-piperidinocarbonyl]-pyrimidine-hydrochloride]	52000 nM	5200 nM			
COC(=O)CCCCNC(=O)c1cc(-c2ccc(C(=N)N)cc2)nn(C)c1=O [2(1), 6-(4-amidinophenyl)-4-[[4-(methoxycarbonyl)-butyl]-aminocarbonyl]-2-methyl-(2H)-pyridazin-3-one]	3200 nM	1900 nM			
N=C(N)c1ccc(-c2cc(C(=O)N[C@H]3CC[C@H](C(=O)O)CC3)cnn2)cc1 [1(20), 3-(4-amidinophenyl)-5-[(trans-4-carboxycyclohexyl)-aminocarbonyl]-pyridazine]	57 nM	290 nM	did not cause any deaths		
N=C(N)c1ccc(-c2ccc(Oc3ccc(CCC(=O)O)cc3)nn2)cc1 [1(8), 6-(4-amidinophenyl)-3-[4-(2-carboxyethyl)-phenyloxy]-pyridazine]	1700 nM	39000 nM			
COC(=O)[C@H]1CC[C@H](NC(=O)c2cc(-c3ccc(C(=N)N)cc3)nn(C)c2=O)CC1 [Example 2, 6-(4-Amidinophenyl)-4-[[trans-4-(methoxycarbonyl)-cyclohexyl]-aminocarbonyl]-2-methyl-(2H)-pyridazin-3-one]	1900 nM	360 nM			
COC(=O)[C@H]1CC[C@H](N(C)C(=O)c2cc(-c3ccc(C(=N)N)cc3)nn(C)c2=O)CC1 [2(17), 6-(4-amidinophenyl)-4-[N-[trans-4-(methoxycarbonyl)-cyclohexyl]-N-methyl-aminocarbonyl]-2-methyl-(2H)-pyridazin-3-one-hydrochloride]	2300 nM	1300 nM			
COc1nc(-c2ccc(C(=N)N)cc2)ncc1C(=O)N1CCC(CC(=O)O)CC1 [1(14), 2-(4-amidinophenyl)-5-[4-(carboxymethyl)-piperidinocarbonyl]-4-methoxy-pyrimidine]	33 nM	100 nM			
